The test concerns the target Menin-MLL (Homo sapiens (Human), UniProt O00255). In words: Determination of binding constants (Ki) to Menin-MLL (HTRF). Particulars: HTRF, 0.25 nM H-FL-Menin, 3.2 nM FITC-MLL-4-43, 24 hr incubation; for pKi: read-out: Menin-MLL Ki HTRF Assay: Ki. A general note: In TR-FRET formats the signal depends on donor and acceptor labels being close together.

Molecules are shown by their SMILES. pEC50, pKi: −log10 of the molar value. Some results are limits rather than exact numbers.

Sequence of Menin-MLL (O00255 whole entry): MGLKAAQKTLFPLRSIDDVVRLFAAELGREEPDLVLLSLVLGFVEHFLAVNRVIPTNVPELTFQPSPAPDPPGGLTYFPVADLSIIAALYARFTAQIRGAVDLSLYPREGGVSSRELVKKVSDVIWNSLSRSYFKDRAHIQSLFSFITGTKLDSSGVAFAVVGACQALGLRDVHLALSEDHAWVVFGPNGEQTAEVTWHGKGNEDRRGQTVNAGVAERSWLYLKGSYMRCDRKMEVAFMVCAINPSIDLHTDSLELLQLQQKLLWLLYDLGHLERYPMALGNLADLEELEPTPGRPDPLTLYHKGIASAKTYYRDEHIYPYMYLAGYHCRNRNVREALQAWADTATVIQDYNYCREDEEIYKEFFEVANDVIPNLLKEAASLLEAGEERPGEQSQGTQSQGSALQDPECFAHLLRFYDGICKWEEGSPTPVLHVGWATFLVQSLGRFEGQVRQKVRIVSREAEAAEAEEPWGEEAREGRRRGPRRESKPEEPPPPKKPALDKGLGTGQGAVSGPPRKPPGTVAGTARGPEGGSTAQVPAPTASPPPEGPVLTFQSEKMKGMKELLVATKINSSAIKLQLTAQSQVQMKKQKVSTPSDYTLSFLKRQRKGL

Take `CC(C)N(C(=O)c1cc(F)ccc1Oc1cncnc1N1CC2(CCN(C[C@@H]3CC[C@@H](NS(=O)(=O)N4CCCC4)CO3)CC2)C1)[C@@H]1CCOC1` [Compound 169, 5-Fluoro-N-isopropyl-2-((4-(7-(((2S,5R)-5-(pyrrolidine-1-sulfonamido)tetrahydro-2H-pyran-2-yl)methyl)-2,7-diazaspiro[3.5]nonan-2-yl)pyrimidin-5-yl)oxy)-N-((R)-tetrahydrofuran-3-yl)benzamide]: the pKi (as a rule, the Ki on a negative log10 scale, so that one unit is a factor of ten) is greater than 9.00.

Turning to `CC(C)N(C)C(=O)c1cc(F)ccc1Oc1cncnc1N1CC2(CCN(C[C@@H]3CC[C@@H](NS(=O)(=O)c4ccn(C)n4)CO3)CC2)C1` [Compound 53, Fluoro-N-isopropyl-N-methyl-2-((4-(7-(((2S,5R)-5-((1-methyl-1H-pyrazole)-3-sulfonamido)tetrahydro-2H-pyran-2-yl)methyl)-2,7-diazaspiro[3.5]nonan-2-yl)pyrimidin-5-yl)oxy)benzamide], the pKi was greater than 9.00.

As for `CCNS(=O)(=O)N[C@@H]1CC[C@@H](CN2CCC3(CC2)CN(c2ncncc2Oc2ccc(F)cc2C(=O)N(C(C)C)[C@H]2CCOC2)C3)OC1` [Compound 180, 2-((4-(7-(((2S,5R)-5-((N-Ethylsulfamoyl)amino)tetrahydro-2H-pyran-2-yl)methyl)-2,7-diazaspiro[3.5]nonan-2-yl)pyrimidin-5-yl)oxy)-5-fluoro-N-isopropyl-N-((S)-tetrahydrofuran-3-yl)benzamide], the negative-log Ki (pKi) is greater than 9.00.

As for `CCS(=O)(=O)N[C@@H]1CC[C@@H](CN2CCC3(CC2)CN(c2ncncc2Oc2ccc(F)cc2C(=O)N(C(C)C)[C@@H]2CCOC2)C3)OC1` [Compound 46, 2-((4-(7-(((2S,5R)-5-(ethylsulfonamido)tetrahydro-2H-pyran-2-yl)methyl)-2,7-diazaspiro[3.5]nonan-2-yl)pyrimidin-5-yl)oxy)-5-fluoro-N-isopropyl-N-((R)-tetrahydrofuran-3-yl)benzamide], the pEC50 (in general, −log10 of the EC50, conventionally taken in molar units) was greater than 7.30 and the pKi was greater than 9.00.

On to `CCCS(=O)(=O)N[C@@H]1CC[C@@H](CN2CCC3(CC2)CN(c2ncncc2Oc2ccc(F)cc2C(=O)N(CC)C(C)C)C3)OC1` [Compound 9, N-ethyl-5-fluoro-N-isopropyl-2-((4-(7-(((2S,5R)-5-(propylsulfonamido)tetrahydro-2H-pyran-2-yl)methyl)-2,7-diazaspiro[3.5]nonan-2-yl)pyrimidin-5-yl)oxy)benzamide], for which the pEC50 was greater than 7.30 and the negative-log Ki (pKi) is greater than 9.00.

For the compound `CCS(=O)(=O)N[C@@H]1CC[C@@H](CN2CCC3(CC2)CN(c2ncncc2Oc2ccc(F)cc2C(=O)N(C[C@@H](O)CO)C(C)C)C3)OC1` [Compound 255, N-((R)-2,3-Dihydroxypropyl)-2-((4-(7-(((2S,5R)-5-(ethylsulfonamido)tetrahydro-2H-pyran-2-yl)methyl)-2,7-diazaspiro[3.5]nonan-2-yl)pyrimidin-5-yl)oxy)-5-fluoro-N-isopropylbenzamide], the pEC50 is greater than 7.30 and the pKi was greater than 9.00.

On to `CC(C)N(C(=O)c1cc(F)ccc1Oc1cncnc1N1CC2(CCN(C[C@@H]3CC[C@@H](NS(=O)(=O)N4CCC[C@@H]4C)CO3)CC2)C1)C1CCOC1` (stereo partly drawn) [Compound 206, 5-Fluoro-N-isopropyl-2-((4-(7-(((2S,5R)-5-(((S)-2-methylpyrrolidine)-1-sulfonamido)tetrahydro-2H-pyran-2-yl)methyl)-2,7-diazaspiro[3.5]nonan-2-yl)pyrimidin-5-yl)oxy)-N-((S)-tetrahydrofuran-3-yl)benzamide], for which the negative logarithm of the Ki (pKi) was greater than 9.00.

Consider `CC(C)N(C(=O)c1cc(F)ccc1Oc1cncnc1N1CC2(CCN(C[C@@H]3CC[C@@H](NS(=O)(=O)C(C)C)CO3)CC2)C1)C1CC(F)(F)C1` [Compound 110, N-(3,3-Difluorocyclobutyl)-5-fluoro-N-isopropyl-2-((4-(7-(((2S,5R)-5-((1-methylethyl)sulfonamido)tetrahydro-2H-pyran-2-yl)methyl)-2,7-diazaspiro[3.5]nonan-2-yl)pyrimidin-5-yl)oxy)benzamide], for which the pEC50 is greater than 7.30 and the pKi was greater than 9.00.

For `CC(C)N(C(=O)c1cc(F)ccc1Oc1cncnc1N1CC2(CCN(C[C@@H]3CC[C@@H](NC(=O)OC(C)(C)C)CO3)CC2)C1)C1CC1` [Compound 17, tert-butyl ((3R,6S)-6-((2-(5-(2-(cyclopropyl(isopropyl)carbamoyl)-4-fluorophenoxy)pyrimidin-4-yl)-2,7-diazaspiro[3.5]nonan-7-yl)methyl)tetrahydro-2H-pyran-3-yl)carbamate], the pEC50 is greater than 7.30 and the negative-log Ki (pKi) was greater than 9.00.

`CC(C)NS(=O)(=O)N[C@@H]1CC[C@@H](CN2CCC3(CC2)CN(c2ncncc2Oc2ccc(F)cc2C(=O)N(CC(F)F)C(C)C)C3)OC1` [Compound 150, N-(2,2-Difluoroethyl)-5-fluoro-N-isopropyl-2-((4-(7-(((2S,5R)-5-((N-isopropylsulfamoyl)amino)tetrahydro-2H-pyran-2-yl)methyl)-2,7-diazaspiro[3.5]nonan-2-yl)pyrimidin-5-yl)oxy)benzamide]: the pKi was greater than 9.00.

For `CC(C)N(CC(F)(F)F)C(=O)c1cc(F)ccc1Oc1nncnc1N1CC2(CCN(C[C@H]3CC[C@H](NS(=O)(=O)N4CCC4)CO3)CC2)C1` (stereo in doubt) [Compound 194, 2-((5-(7-(((2R,5S)-5-(Azetidine-1-sulfonamido)tetrahydro-2H-pyran-2-yl)methyl)-2,7-diazaspiro[3.5]nonan-2-yl)-1,2,4-triazin-6-yl)oxy)-5-fluoro-N-isopropyl-N-(2,2,2-trifluoroethyl)benzamide], the negative logarithm of the Ki (pKi) is greater than 9.00.

For `CCS(=O)(=O)N[C@@H]1CC[C@@H](CN2CCC3(CC2)CN(c2ncncc2Oc2ccc(F)cc2C(=O)N(C(C)C)[C@H]2CC[C@@H]2O)C3)OC1` (single isomer, unassigned) [Compound 257], the pEC50 is greater than 7.30 and the negative-log Ki (pKi) is greater than 9.00.

Turning to `CCNC(=O)N[C@@H]1CC[C@@H](CN2CCC3(CC2)CN(c2ncncc2Oc2ccc(F)cc2C(=O)N(CC)C(C)C)C3)OC1` [Compound 39, N-ethyl-2-((4-(7-(((2S,5R)-5-(3-ethylureido)tetrahydro-2H-pyran-2-yl)methyl)-2,7-diazaspiro[3.5]nonan-2-yl)pyrimidin-5-yl)oxy)-5-fluoro-N-isopropylbenzamide], the negative logarithm of the EC50 (pEC50) is greater than 7.30 and the pKi was greater than 9.00.

Turning to `CCN(C)S(=O)(=O)N[C@@H]1CC[C@@H](CN2CCC3(CC2)CN(c2ncncc2Oc2ccc(F)cc2C(=O)N2[C@H](C)COC[C@H]2C)C3)OC1` [Compound 128, {[(3R,6S)-6-{[2-(5-{2-[(3R,5R)-3,5-Dimethylmorpholine-4-carbonyl]-4-fluorophenoxy}pyrimidin-4-yl)-2,7-diazaspiro[3.5]nonan-7-yl]methyl}oxan-3-yl]sulfamoyl}(ethyl)methylamine], the negative-log Ki (pKi) was greater than 9.00.

In the case of `CC[S@](=N)(=O)N[C@@H]1CC[C@@H](CN2CCC3(CC2)CN(c2ncncc2Oc2ccc(F)cc2C(=O)N(C(C)C)C(C)C)C3)OC1` (single isomer, unassigned) [Compound 227], the pKi was greater than 9.00.

Regarding `CCN(C(=O)c1cc(F)ccc1Oc1cnc(C)nc1N1CC2(CCN(C[C@@H]3CC[C@@H](NS(=O)(=O)CC)CO3)CC2)C1)C(C)C` [Compound 216, N-Ethyl-2-((4-(7-(((2S,5R)-5-(ethylsulfonamido)tetrahydro-2H-pyran-2-yl)methyl)-2,7-diazaspiro[3.5]nonan-2-yl)-2-methylpyrimidin-5-yl)oxy)-5-fluoro-N-isopropylbenzamide], the pKi is 8.82 to 9.00.

The values above are taken from patent publication US11919901B2 (Syndax Pharmaceuticals, Inc., priority 2021, dated 2024).
